# From the OPERA property sets (Mansouri et al. 2018)
row,SMILES,logP
1,CC(C)(C)N(NC(=O)c1ccccc1)C(=O)c1ccc(C(F)(F)F)cc1,3.77
2,COc1ccc(C(=O)N(NC(=O)c2ccccc2)C(C)(C)C)cc1,2.56
3,CC(C)(C)N(NC(=O)c1ccccc1)C(=O)c1cc(F)c(F)c(F)c1F,3.44
4,CC(C)(C)N(NC(=O)c1cccc(Cl)c1)C(=O)c1ccccc1Cl,3.49
5,CC(C)(C)N(NC(=O)c1ccccc1)C(=O)c1ccccc1C(F)(F)F,2.85
6,CC(C)(C)N(NC(=O)c1ccccc1)C(=O)c1cccc(C(F)(F)F)c1,3.61
7,CC(C)(C)N(NC(=O)c1ccccc1)C(=O)c1ccc(Br)cc1,3.66
8,Cc1cccc(C(=O)N(NC(=O)c2ccccc2)C(C)(C)C)c1,2.79
9,COc1ccc(C(=O)N(NC(=O)c2ccccc2)C(C)(C)C)cc1OC,2.09
10,CC(C)(C)N(NC(=O)c1ccccc1)C(=O)c1cccc(C#N)c1,2.34
11,CC(C)(C)N(NC(=O)c1ccccc1)C(=O)c1ccc(C#N)cc1,2.5
12,CC(C)(C)N(NC(=O)c1ccccc1)C(=O)c1ccccc1,2.45
13,CC(C)(C)N(NC(=O)c1ccccc1)C(=O)c1ccc(F)cc1,2.85
14,Cc1ccc(C(=O)N(NC(=O)c2ccccc2)C(C)(C)C)cc1C,3.34
15,CC(C)(C)N(NC(=O)c1ccccc1)C(=O)c1c(F)c(F)c(F)c(F)c1F,3.25
16,Cc1ccc(C(=O)N(NC(=O)c2ccccc2)C(C)(C)C)cc1,2.99
17,CC(C)(C)N(NC(=O)c1ccccc1)C(=O)c1ccc(I)cc1,3.78
18,CC(C)(C)N(NC(=O)c1ccccc1)C(=O)c1ccc([N+](=O)[O-])cc1,2.63
19,Cc1cc(C)cc(C(=O)N(NC(=O)c2ccccc2)C(C)(C)C)c1,3.39
20,COc1cccc(C(=O)N(NC(=O)c2ccccc2)C(C)(C)C)c1,2.56
21,CC(C)(C)N(NC(=O)c1ccccc1)C(=O)c1cccc([N+](=O)[O-])c1,2.73

# Continued, values first:
row,logP,SMILES
1,2.34,CC(C)(C)N(NC(=O)c1ccccc1)C(=O)c1c(F)cccc1Cl
2,2.75,CC(C)(C)N(NC(=O)c1ccccc1Cl)C(=O)c1ccccc1Cl
3,2.69,CC(C)(C)N(NC(=O)c1ccccc1)C(=O)c1ccccc1Br
4,2.16,CC(C)(C)N(NC(=O)c1ccccc1)C(=O)c1c(F)cccc1F
5,3.49,CC(C)(C)N(NC(=O)c1ccccc1)C(=O)c1cccc(Br)c1
6,2.38,CC(C)(C)N(NC(=O)c1ccccc1)C(=O)c1ccccc1F
7,3.36,CC(C)(C)N(NC(=O)c1ccccc1)C(=O)c1cc(Cl)ccc1Cl
8,2.83,CC(C)(C)N(NC(=O)c1ccccc1)C(=O)c1ccccc1I
9,3.28,CC(C)(C)N(NC(=O)c1ccccc1)C(=O)c1cccc(Cl)c1
10,3.25,Cc1ccc(C)c(C(=O)N(NC(=O)c2ccccc2)C(C)(C)C)c1
11,2.56,CC(C)(C)N(NC(=O)c1ccccc1)C(=O)c1c(Cl)cccc1Cl
12,3.57,Cc1c(Cl)cccc1C(=O)N(NC(=O)c1ccccc1)C(C)(C)C
13,2.27,CC(C)(C)N(NC(=O)c1ccccc1)C(=O)c1ccccc1[N+](=O)[O-]
14,2.04,COc1ccccc1C(=O)N(NC(=O)c1ccccc1)C(C)(C)C
15,3.1,Cc1cccc(C(=O)N(NC(=O)c2ccccc2)C(C)(C)C)c1C
16,3.55,CC(C)(C)N(NC(=O)c1ccccc1)C(=O)c1ccc(Cl)cc1Cl
17,3.41,CC(C)(C)N(NC(=O)c1ccccc1)C(=O)c1cccc(Cl)c1Cl
18,3.72,CC(C)(C)N(NC(=O)c1ccccc1)C(=O)c1cccc(I)c1
19,2.78,CC(C)(C)N(NC(=O)c1ccccc1)C(=O)c1cccc(F)c1
20,2.96,CCc1ccccc1C(=O)N(NC(=O)c1ccccc1)C(C)(C)C
21,3.18,Cc1ccc(C(=O)N(NC(=O)c2ccccc2)C(C)(C)C)c(C)c1
22,2.6,CSc1ccccc1C(=O)N(NC(=O)c1ccccc1)C(C)(C)C
23,2.75,Cc1ccccc1C(=O)N(NC(=O)c1ccccc1)C(C)(C)C
24,4.25,CC(C)(C)N(NC(=O)c1ccccc1)C(=O)c1ccc(Cl)c(Cl)c1
25,3.42,CC(C)(C)N(NC(=O)c1ccccc1)C(=O)c1ccc(Cl)cc1
